This test has as its target T1, Human TRPV3 (Homo sapiens, UniProt Q8NET8).
T1 construct: expressed in transfected cells; host or cells: CHO cells (G-418 selection)
T1 sequence (Q8NET8 1-790): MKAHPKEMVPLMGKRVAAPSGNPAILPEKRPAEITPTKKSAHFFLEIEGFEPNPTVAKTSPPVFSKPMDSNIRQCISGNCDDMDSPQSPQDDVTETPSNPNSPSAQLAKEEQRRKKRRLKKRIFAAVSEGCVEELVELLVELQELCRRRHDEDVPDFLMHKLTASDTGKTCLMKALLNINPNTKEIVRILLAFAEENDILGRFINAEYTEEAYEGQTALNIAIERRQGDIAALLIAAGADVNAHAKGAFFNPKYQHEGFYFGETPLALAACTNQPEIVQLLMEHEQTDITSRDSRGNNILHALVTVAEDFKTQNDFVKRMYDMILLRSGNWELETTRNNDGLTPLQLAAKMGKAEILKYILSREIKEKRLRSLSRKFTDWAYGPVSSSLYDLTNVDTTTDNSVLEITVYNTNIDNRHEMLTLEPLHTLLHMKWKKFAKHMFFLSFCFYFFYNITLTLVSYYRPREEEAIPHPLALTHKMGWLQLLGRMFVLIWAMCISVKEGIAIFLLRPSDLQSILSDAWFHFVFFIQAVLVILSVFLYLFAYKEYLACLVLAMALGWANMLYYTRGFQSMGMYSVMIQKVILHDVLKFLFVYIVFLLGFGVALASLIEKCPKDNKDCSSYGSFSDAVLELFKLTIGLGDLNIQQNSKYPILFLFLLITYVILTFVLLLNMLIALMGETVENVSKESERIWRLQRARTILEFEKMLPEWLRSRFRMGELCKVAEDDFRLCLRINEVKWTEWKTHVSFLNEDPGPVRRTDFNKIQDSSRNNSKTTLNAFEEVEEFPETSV
Briefly: Screening for TRPV3 antagonist using the 45Calcium uptake assay (inhibition of 2-APB induced cellular uptake of radioactive calcium). It is filed as cell-based. Particulars: human TRPV3 expressing CHO cells, 2-APB 500 μM; for inhibition at 1 µM / Percentage inhibition at 1.0 μM: 1.0 μM test compound; for inhibition at 1 µM: read-out: Percentage inhibition at 1.0 μM; for inhibition at 10 µM / Percentage inhibition at 10.0 μM: 10.0 μM test compound; for inhibition at 10 µM: read-out: Percentage inhibition at 10.0 μM; for IC50: class symbols. Summed up: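 CHO cells stably expressing human TRPV3, preincubated 10 min with test compound, then 2-APB (500 μM final) plus 5 μCi/ml 45Ca2+ for 4 min in DMEM/F-12 with 1.8 mM CaCl2; 0.5% DMSO final. Lysate radioactivity by scintillation counting. IC50 by nonlinear regression of % maximal response; % inhibition at 1.0 and 10.0 μM.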

The values that follow come from patent US8119647B2, “Fused pyrimidineone compounds as TRPV3 modulators” (Glenmark Pharmaceuticals S.A., priority 2008, dated 2012).

The term inhibition denotes the relative decrease from the control value, in per cent. As usually defined, the IC50 is the point on the concentration scale where inhibition reaches its midpoint.

As for `COc1cccc(/C=C/c2nc3sccn3c(=O)c2-c2ccc(OC(F)(F)F)cc2)c1OCC1CC1` [Example 58, 7-{(E)-2-[2-(Cyclopropylmethoxy)-3-methoxyphenyl}-1-ethenyl]-6-(4-trifluoromethoxyphenyl)-5H-[1,3]thiazolo[3,2-a]pyrimidin-5-one], the inhibition at 1 µM is 92.8%, the inhibition at 10 µM came to 95.9% and the IC50 is below 250 nM.

Turning to `O=c1c(-c2ccc(OC(F)(F)F)cc2)c(/C=C/c2cccc(O)c2O)nc2sccn12` [Example 59], the “Percentage inhibition at 1.0 μM” value stood at 3.68% and the “Percentage inhibition at 10.0 μM” value stood at 0.00%.

Turning to `O=c1c(-c2ccc(OC(F)(F)F)cc2)c(/C=C/c2cccc(O)c2OCC2CC2)nc2sccn12` [Example 60], the “Percentage inhibition at 1.0 μM” value is recorded as 41.32% and the “Percentage inhibition at 10.0 μM” value is on record as 81.57%.

On to `CCOc1cccc(/C=C/c2nc3sccn3c(=O)c2-c2ccc(OC(F)(F)F)cc2)c1OCC1CC1` [Example 61, 7-{(E)-2-[2-(Cyclopropylmethoxy)-3-ethoxyphenyl}-1-ethenyl]-6-(4-trifluoromethoxy-phenyl)-5H-[1,3]thiazolo[3,2-a]pyrimidin-5-one], for which the inhibition at 1 µM is 22.7% and the inhibition at 10 µM is 60.6%.

As for `CCOCCOc1cccc(/C=C/c2nc3sccn3c(=O)c2-c2ccc(OC(F)(F)F)cc2)c1OCC1CC1` [Example 62, 7-{(E)-2-[2-(Cyclopropylmethoxy)-3-(2-ethoxyethoxy)phenyl]-1-ethenyl}-6-(4-trifluoro-methoxyphenyl)-5H-[1,3]thiazolo[3,2-a]pyrimidin-5-one], the “Percentage inhibition at 1.0 μM” value was 30.6% and the “Percentage inhibition at 10.0 μM” value is 55.9%.

Consider `O=c1c(-c2ccc(OC(F)(F)F)cc2)c(/C=C/c2cccc(OC(F)F)c2OCC2CC2)nc2sccn12` [Example 63, 7-{(E)-2-[2-(Cyclopropylmethoxy)-3-difluoromethoxyphenyl]-1-ethenyl}-6-(4-trifluoromethoxyphenyl)-5H-[1,3]thiazolo[3,2-a]pyrimidin-5-one], for which the inhibition at 1 µM came to 81.4%, the inhibition at 10 µM is 91.8% and the IC50 is below 250 nM.

Turning to `O=c1c(-c2ccc(OC(F)(F)F)cc2)c(/C=C/c2cccc(OCC3CC3)c2OCC2CC2)nc2sccn12` [Example 64, 7-{(E)-2-[2-(Cyclopropylmethoxy)-3-(cyclopropylmethoxy)phenyl]-1-ethenyl}-6-(4-trifluoromethoxyphenyl)-5H-[1,3]thiazolo[3,2-a]pyrimidin-5-one], the inhibition at 1 µM is 16.3% and the inhibition at 10 µM amounted to 21.1%.

Regarding `N#CCCCOc1cccc(/C=C/c2nc3sccn3c(=O)c2-c2ccc(OC(F)(F)F)cc2)c1OCC1CC1` [Example 65, 7-{(E)-2-[2-(Cyclopropylmethoxy)-3-(3-cyanopropoxy)phenyl]-1-ethenyl}-6-(4-trifluoromethoxyphenyl)-5H-[1,3]thiazolo[3,2-a]pyrimidin-5-one], the inhibition at 1 µM worked out at 15.4% and the inhibition at 10 µM was 22%.

On to `CCCOc1cccc(/C=C/c2nc3sccn3c(=O)c2-c2ccc(OC(F)(F)F)cc2)c1OCC1CC1` [Example 66, 7-{(E)-2-[2-(Cyclopropylmethoxy)-3-propoxyphenyl}-1-ethenyl]-6-(4-trifluoromethoxy-phenyl)-5H-[1,3]thiazolo[3,2-a]pyrimidin-5-one], for which the inhibition at 1 µM was 23.4% and the inhibition at 10 µM was 34.1%.

For `COc1cccc(/C=C/c2nc3sccn3c(=O)c2-c2ccc(OC(F)(F)F)cc2)c1OCC1CCC1` [Example 67, 7-[(E)-2-{2-Cyclobutylmethoxy-3-methoxyphenyl}-1-ethenyl]-6-[4-(trifluoromethoxy)-phenyl]-5H-[1,3]thiazolo[3,2-a]pyrimidin-5-one], the inhibition at 1 µM was 80.2%, the inhibition at 10 µM turned out to be 92.2% and the IC50 is below 250 nM.

Take `COc1cccc(/C=C/c2nc3sccn3c(=O)c2-c2ccc(OC(F)(F)F)cc2)c1OC1CCCC1` [Example 68]: the inhibition at 1 µM turned out to be 75.8%, the inhibition at 10 µM stood at 83.6% and the IC50 was below 250 nM.

`COc1cccc(/C=C/c2nc3sccn3c(=O)c2-c2ccc(OC(F)(F)F)cc2)c1O` [Example 69, 7-[(E)-2-(2-Hydroxy-3-methoxyphenyl)-1-ethenyl]-6-[4-(trifluoromethoxy)phenyl]-5H-[1,3]thiazolo[3,2-a]pyrimidin-5-one]: the inhibition at 1 µM worked out at 51.5% and the inhibition at 10 µM came to 91.5%.

Consider `COc1cccc(/C=C/c2nc3sccn3c(=O)c2-c2ccc(OC(F)(F)F)cc2)c1OCCC(F)(F)F` [Example 70, 7-[(E)-2-{3-Methoxy-2-(2-trifluoromethylethoxy)phenyl}-1-ethenyl]-6-[4-(trifluoromethoxy)phenyl]-5H-[1,3]thiazolo[3,2-a]pyrimidin-5-one], for which the inhibition at 1 µM is 90.8%, the inhibition at 10 µM worked out at 97.9% and the IC50 is below 250 nM.

For `COc1cccc(/C=C/c2nc3sccn3c(=O)c2-c2ccc(OC(F)(F)F)cc2)c1OCC1CCCCC1` [Example 71, 7-[(E)-2-(2-Cyclohexylmethoxy-3-methoxyphenyl)-1-ethenyl]-6-[4-(trifluoromethoxy)phenyl]-5H-[1,3]thiazolo[3,2-a]pyrimidin-5-one], the inhibition at 1 µM turned out to be 61.1% and the inhibition at 10 µM is 80.8%.

As to `COc1cccc(/C=C/c2nc3sccn3c(=O)c2-c2ccc(OC(F)(F)F)cc2)c1OC1CCCCC1` [Example 72, 7-[(E)-2-(2-Cyclohexyloxy-3-methoxyphenyl)-1-ethenyl]-6-[4-(trifluoromethoxy)phenyl]-5H-[1,3]thiazolo[3,2-a]pyrimidin-5-one], the inhibition at 1 µM was found to be 58.1%, the inhibition at 10 µM is 82.1% and the IC50 fell in the range of 250 to 500 nM.

As for `COCCOc1c(/C=C/c2nc3sccn3c(=O)c2-c2ccc(OC(F)(F)F)cc2)cccc1OC` [Example 73, 7-[(E)-2-{3-Methoxy-2-(2-methoxyethoxy)phenyl}-1-ethenyl]-6-[4-(trifluoromethoxy)-phenyl]-5H-[1,3]thiazolo[3,2-a]pyrimidin-5-one], the inhibition at 1 µM came to 79.2%, the inhibition at 10 µM is 94.9% and the IC50 lay in the range of 250 to 500 nM.

`COc1cccc(/C=C/c2nc3sc(C)cn3c(=O)c2-c2ccc(OC(F)(F)F)cc2)c1OCC1CC1` [Example 75, 7-[(E)-2-(2-Cyclopropylmethoxy-3-methoxyphenyl)-1-ethenyl]-2-methyl-6-[4-(trifluoromethoxy)phenyl]-5H-[1,3]thiazolo[3,2-a]pyrimidin-5-one]: the inhibition at 1 µM is 86.3%, the inhibition at 10 µM is 90.4% and the IC50 is below 250 nM.

In the case of `COc1cccc(/C=C/c2nc3scc(C)n3c(=O)c2-c2ccc(OC(F)(F)F)cc2)c1OCC1CC1` [Example 76, 7-[(E)-2-(2-Cyclopropylmethoxy-3-methoxyphenyl)-1-ethenyl]-3-methyl-6-[4-(trifluoromethoxy)phenyl]-5H-[1,3]thiazolo[3,2-a]pyrimidin-5-one], the inhibition at 1 µM was 61.9% and the inhibition at 10 µM amounted to 79.3%.

Regarding `COc1cccc(/C=C/c2nc3sc(C)c(C)n3c(=O)c2-c2ccc(OC(F)(F)F)cc2)c1OCC1CC1` [Example 77, 7-[(E)-2-(2-Cyclopropylmethoxy-3-methoxyphenyl)-1-ethenyl]-2,3-dimethyl-6-[4-(trifluoromethoxy)phenyl]-5H-[1,3]thiazolo[3,2-a]pyrimidin-5-one], the inhibition at 1 µM stood at 24.7% and the inhibition at 10 µM worked out at 44%.

`COc1cccc(/C=C/c2nc3sc(Cl)cn3c(=O)c2-c2ccc(OC(F)(F)F)cc2)c1OCC(C)(C)C` [Example 78, 2-Chloro-7-[(E)-2-(2-(2,2-dimethylpropoxy)-3-methoxyphenyl)vinyl]-6-[4-(trifluoromethoxy)phenyl]-5H-[1,3]thiazolo[3,2-a]pyrimidin-5-one]: the inhibition at 1 µM amounted to 27.1% and the inhibition at 10 µM is 47.5%.

Turning to `COc1cccc(/C=C/c2nc3sc(Cl)cn3c(=O)c2-c2ccc(N(C)C)cc2)c1OCC(C)(C)C` [Example 79, 2-Chloro-6-[4-(dimethylamino)phenyl]-7-[(E)-2-(2-(2,2-dimethylpropoxy)-3-methoxy-phenyl)vinyl]-5H-[1,3]thiazolo[3,2-a]pyrimidin-5-one], the inhibition at 1 µM was 57.9%.
